Assays:
[1] = test system: collagenase; assay: Inhibition of collagenase activity (azocol digestion, absorbance at 540 nm), Experiment 1; format: biochemical; details: Table 4; final concentration 0.02%, 10% ethanol solution
Protocol: The inhibition effects on collagenase activity of various substances including ursodesoxycholic acid and chenodesoxycholic acid as the effective components of the composition for enhancing oral hygiene according to the present invention were determined and compared according to the following method.
ursodesoxycholic aicd, chenodesoxycholic acid, fel tauri salt, bamboo salt, common salt, Machili cortex, Phellodendri cortex, Platycodi radix, Schizonepetae herba, Glycyrrhizae radix, Angelicae gigantis radix, Chamomillae flos, Myrrha, Theae folium, Taraxaci radix cum Herba, Lonicerae flos, Ciniicifugae rhizoma.
1 100 μl of 2% azocol solution was added to the test tube and then 190 μl of buffer solution (0.05M Tris-HCl, 1 mM CaCl2, pH 7.8) was added thereto.
2 To the resulting solution as prepared above was added to each test substance in the following concentration:
Ursodesoxycholic acid (10% ethanol solution) or chenodesoxycholic acid (10% ethanol solution) was added to the final concentration of 0.02%;
Fel tauri salt, bamboo salt or common salt was dissolved in the buffer solution as mentioned above and then added to the final concentration of 2.0%;
Machili cortex, Phellodendri cortex, Platycodi radix, Schizonepetae herba, Glycyrrhizae radix, Angelicae gigantis radix, Chamomillae flos, Myrrha, Theae folium, Taraxaci radix cum Herba, Lonicerae flos or Cimicifugae rhizoma was added in the form of 30% ethanol extract to the final concentration of 0.1%.
3 100 μl of collagenase having 100 ppm concentration was added and then the mixture was maintained in a 37° C. incubator for 18 hours. (Separately, the standard activity curve was prepared from 10, 100, 200 μl of collagenase.)
4 The test tubes were centrifuged for 5 minutes.
5 The supernatant was separated from the test tube and then added to the cell. The absorbance at 540 nm was measured by spectrophotometer and then the activity of the test group was determined from the standard activity curve.

[2] = test system: Streptococcus mutans 10449, type C; assay: Inhibition of plaque formation on glass bar by Streptococcus mutans, Experiment 2; format: cell-based; details: for plaque formation(%): 1440 min
Protocol: The inhibition effect of ursodesoxycholic acid, chenodesoxycholic acid and triclosan as the effective components of the composition for enhancing oral hygiene according to the present invention on plaque formation was determined and compared according to the following method.
Ursodesoxycholic acid, Chenodesoxycholic aicd, Triclosan.
1 Test strain, Streptococcus mutans 10449, type C was cultured in brain-heart infusion agar medium and then the cultured strain was inoculated on THB(Todd Hewitt Broth) and cultured at 37° C. for 15 hours.
2 The small glass bar was sterilized and then weighed.
3 This glass bar was introduced into the test tube in which the medium containing sucrose is included. The test substance was added at a given concentration to the test tube and then the test microorganism strain was added thereto. The test tube was cultured at 37° C. for 24 hours.
4 After incubation, the glass bar was carefully removed from the test tube and dried at 37° C. for one day. The final weight of the glass bar was measured. The control group was treated in the same manner as the test group except that the test substance is not added.
5 From the measured result, the plaque formation percentage was calculated according to the following equation: [formula]

[3] = test system: plaque formation; assay: Plaque index of test subjects using oral rinse of Table 2, Experiment 4; format: in vivo, human; details: in words
Excerpt: (§1) 1 The test subjects were selected and were given the explanation of oral medical examination.
(§2) 2 The test subjects were divided such that the group for each composition of examples and comparative examples includes 10 subjects, and then had the education of correct brushing method. The test subject were subjected to the oral medical examination to measure the plaque index (Quigley-Hein Index modified by Turesky) and the gingivitis index (Gingival Bleeding Index, Loe-Silness Index).
(§3) 3 Before the test, all the test subjects were subjected to teeth scaling.
(§4) 4 The placebo dentifrice(calcium monohydrogenphosphate 40%, glycerin 25%, sodium laurylsulfate 1.5%, sodium saccharin 0.1%, paraoxybenzoic acid ester 0.1%, sodium carboxymethylcellulose 1%, purified water added to 100%) was used for 2 weeks and then the oral medical exmamination was conducted again to measure the plaque index and the gingivitis index as the initial value.
(§5) 5 The test subjects were allowed to brush using the dentifrice of examples and comparative examples for 4 weeks, three times for one day, according to the same method as usual. The oral medical examination was conducted at the second and fourth weeks to determine the plaque index score and the gingivitis index score.
6 The score obtained after 4 weeks was compared with the initial value and examined for the statistic significance using T-test. […]

[4] = test system: plaque formation; assay: Plaque index of test subjects using dentifrice of Table 1, Experiment 3; format: in vivo, human; details: in words; for effect on the plaque formation: dentifrice
Protocol: (§6) The effect of inhibiting plaque formation and gingivitis was tested using the dentifrice compositions of Examples 1 to 6 and Comparative Examples 1 to 4 described in Table 1 according to the following method. The results are described in the following Tables 7 and 8.
as §1, §2, §3, §4, §5
(§7) 6 The score obtained after 4 weeks was compared with the initial value and examined for the statistic significance using T-test.

[5] = test system: collagenase; assay: Inhibition of collagenase activity (azocol digestion, absorbance at 540 nm), Experiment 1; format: biochemical; details: for Absorbance (540 nm) / Enzyme activity inhibition (%): Table 5; for activity for inactivating collagenase / inhibition effect at the concentration in excess of 0.6% / inhibition effect on collagenase activity in comparison with extracts of other medicinal herbs: in words
[6] = test system: gingivitis; assay: Gingivitis index of test subjects using dentifrice of Table 1, Experiment 3; format: in vivo, human; details: for effect of alleviating gingivitis / effect on gingivitis in combination with bamboo salt, the extract of medicinal herbs, etc.: dentifrice, in words
Protocol: as §6, §1, §2, §3, §4, §5, §7

[7] = test system: gingivitis; assay: Gingivitis index of test subjects using oral rinse of Table 2, Experiment 4; format: in vivo, human; details: in words
Excerpt: as §1, §2, §3, §4, §5, §7
The effect of inhibiting plaque formation and gingivitis was tested using the oral rinse compositions of Examples 7 to 12 and Comparative Examples 5 to 8 described in Table 2 according to the same method as Experiment 3. The results are described in the following Tables 9 and 10.

C[C@H](CCC(=O)O)[C@H]1CC[C@H]2[C@@H]3[C@@H](O)C[C@@H]4C[C@H](O)CC[C@]4(C)[C@H]3CC[C@]12C [Ursodesoxycholic acid, ursodesoxycholic acid]
Absorbance (540 nm) [1]: 0.243
Enzyme activity inhibition (%) [1]: 45.64%
pH ([2]; 0.100 (unit not given)): 4.2
plaque formation(%) ([2]; 0.100 (unit not given)): 100.0%
effect on the plaque formation [3]: no significant effect on the plaque formation
effect on the plaque formation [4]: no significant effect on the plaque formation
plaque effect in combination with the extract of other medicinal herbs [4]: do not show any synergistic and antagonistic effect
concentration at which inhibition effect on collagenase begins [5]: 0.01%
concentration at which inhibition effect on collagenase reaches the maximum level [5]: 0.6%
Absorbance (540 nm) ([5]; content 0.001%): 0.326
Enzyme activity inhibition (%) ([5]; content 0.001%): -2.82%
Absorbance (540 nm) ([5]; content 0.010%): 0.305
Enzyme activity inhibition (%) ([5]; content 0.010%): 13.02%
Absorbance (540 nm) ([5]; content 0.020%): 0.243
Enzyme activity inhibition (%) ([5]; content 0.020%): 45.64%
Absorbance (540 nm) ([5]; content 0.050%): 0.215
Enzyme activity inhibition (%) ([5]; content 0.050%): 57.54%
Absorbance (540 nm) ([5]; content 0.100%): 0.166
Enzyme activity inhibition (%) ([5]; content 0.100%): 71.26%
Absorbance (540 nm) ([5]; content 0.150%): 0.050
Enzyme activity inhibition (%) ([5]; content 0.150%): 88.60%
Absorbance (540 nm) ([5]; content 0.200%): 0.005
Enzyme activity inhibition (%) ([5]; content 0.200%): 92.03%
Absorbance (540 nm) ([5]; content 0.600%): 0.002
Enzyme activity inhibition (%) ([5]; content 0.600%): 92.22%
Absorbance (540 nm) ([5]; content 1.000%): 0.000
Enzyme activity inhibition (%) ([5]; content 1.000%): 92.34%
Absorbance (540 nm) ([5]; content 2.000%): 0.000
Enzyme activity inhibition (%) ([5]; content 2.000%): 92.34%
activity for inactivating collagenase [5]: good activity for inactivating collagenase
inhibition effect at the concentration in excess of 0.6% [5]: not significantly increased
inhibition effect on collagenase activity in comparison with extracts of other medicinal herbs [5]: superior inhibition effect on collagenase activity
effect of alleviating gingivitis at the concentration in excess of 1.0 wt % ([6]; Comparative Example 2, in words): does not show any increase of the effect in proportion to the increase of the concentration
effect of alleviating gingivitis [6]: good effect of alleviating gingivitis
effect on gingivitis in combination with bamboo salt, the extract of medicinal herbs, etc. [6]: synergistic alleviating effect on gingivitis
concentration at which the effect of alleviating gingivitis begins ([6]; human, in vivo): 0.01 wt %
concentration with a significant effect in comparison with Comparative Example 4 ([6]; human, in vivo): ≥ 0.02 wt %
alleviating effect for gingivitis [7]: good alleviating effect for gingivitis
effect on gingivitis in combination with bamboo salt, the extract of medicinal herbs, etc. [7]: synergistic allevia- ting effect on gingivitis

Oc1cc(Cl)ccc1Oc1ccc(Cl)cc1Cl [Triclosan, triclosan]
pH ([2]; triclosan 0.0010): 4.3
plaque formation(%) ([2]; triclosan 0.0010): 100.0%
pH ([2]; triclosan 0.0050): 4.3
plaque formation(%) ([2]; triclosan 0.0050): 100.0%
pH ([2]; triclosan 0.0100): 4.3
plaque formation(%) ([2]; triclosan 0.0100): 100.0%
pH ([2]; triclosan 0.0300): 4.5
plaque formation(%) ([2]; triclosan 0.0300): 50.0%
pH ([2]; triclosan 0.0500): 7.5
plaque formation(%) ([2]; triclosan 0.0500): 0.0%

C[C@H](CCC(=O)O)[C@H]1CC[C@H]2[C@@H]3[C@H](O)C[C@@H]4C[C@H](O)CC[C@]4(C)[C@H]3CC[C@]12C [Chenodesoxycholic acid, chenodesoxycholic acid]
Absorbance (540 nm) [1]: 0.260
Enzyme activity inhibition (%) [1]: 39.23%
pH ([2]; 0.100 (unit not given)): 4.2
plaque formation(%) ([2]; 0.100 (unit not given)): 100.0%
effect on the plaque formation [3]: no significant effect on the plaque formation
effect on the plaque formation [4]: no significant effect on the plaque formation
plaque effect in combination with the extract of other medicinal herbs [4]: do not show any synergistic and antagonistic effect
concentration at which inhibition effect on collagenase begins [5]: 0.01%
concentration at which inhibition effect on collagenase reaches the maximum level [5]: 0.6%
Absorbance (540 nm) ([5]; content 0.001%): 0.324
Enzyme activity inhibition (%) ([5]; content 0.001%): -1.20%
Absorbance (540 nm) ([5]; content 0.010%): 0.315
Enzyme activity inhibition (%) ([5]; content 0.010%): 6.55%
Absorbance (540 nm) ([5]; content 0.020%): 0.260
Enzyme activity inhibition (%) ([5]; content 0.020%): 39.23%
Absorbance (540 nm) ([5]; content 0.050%): 0.230
Enzyme activity inhibition (%) ([5]; content 0.050%): 52.15%
Absorbance (540 nm) ([5]; content 0.100%): 0.180
Enzyme activity inhibition (%) ([5]; content 0.100%): 67.87%
Absorbance (540 nm) ([5]; content 0.150%): 0.052
Enzyme activity inhibition (%) ([5]; content 0.150%): 88.41%
Absorbance (540 nm) ([5]; content 0.200%): 0.007
Enzyme activity inhibition (%) ([5]; content 0.200%): 91.91%
Absorbance (540 nm) ([5]; content 0.600%): 0.002
Enzyme activity inhibition (%) ([5]; content 0.600%): 92.22%
Absorbance (540 nm) ([5]; content 1.000%): 0.002
Enzyme activity inhibition (%) ([5]; content 1.000%): 92.22%
Absorbance (540 nm) ([5]; content 2.000%): 0.002
Enzyme activity inhibition (%) ([5]; content 2.000%): 92.22%
activity for inactivating collagenase [5]: good activity for inactivating collagenase
inhibition effect at the concentration in excess of 0.6% [5]: not significantly increased
inhibition effect on collagenase activity in comparison with extracts of other medicinal herbs [5]: superior inhibition effect on collagenase activity
effect of alleviating gingivitis [6]: good effect of alleviating gingivitis
effect on gingivitis in combination with bamboo salt, the extract of medicinal herbs, etc. [6]: synergistic alleviating effect on gingivitis
alleviating effect for gingivitis [7]: good alleviating effect for gingivitis
effect on gingivitis in combination with bamboo salt, the extract of medicinal herbs, etc. [7]: synergistic allevia- ting effect on gingivitis
